Where no end group is shown, it is not given here. [ ]: non-standard residue; d: D form. Ava = NCCCCC(=O)O
How the values were obtained:
splenocytes = experiment: Immunization with polypeptide-pulsed DC, splenocyte proliferation; assay type: in vivo, FVB/N mice; settings: DC pulsed 2 hours; splenocytes at 1 week; FIG. 30
Method: FIG. 30. DC pulsed with modified polypeptides are more immunogenic than FR74-pulsed DC. […] Control=DC pulsed with media.
Alternatively, the strategies developed herein can be applied to other fields of immunotherapy. […] In that experiment, bone-marrow derived DC were pulsed with either PBS, FR74 peptide, or FR74.4 peptide for 2 hours. The DC were washed and injected into FVB/N mice.

FR74-specific T cells = experiment: Proliferation (thymidine incorporation) of T cells generated ex vivo with polypeptides; assay type: cell-based, FVB/N mice; settings: thymidine incorporation against native FR74; FIG. 5
Method: FIG. 5 is a graph plotting proliferation (as measured by thymidine incorporation (CPM)) of T cells treated with the indicated polypeptides. Epitope nesting activates high affinity antigen-specific T cells. T cells were tested for incorporation against native FR74 polypeptide at various concentrations. Each data point is the mean of 3 determinations.
In terms of proliferation, only the dual modified polypeptide was able to generate T cells that were able to proliferate at 10^−9 g/mL (FIG. 5).
In order to determine whether furin cleavage is required, two methods are used: furin insensitive linkers and furin inhibitors. Blockade of enhanced ex vivo expansion mediated by the DC3 peptide using these two methods is powerful evidence, outside of a furin knockout mouse, that furin is required for the actions of DC3. Although it has already been shown that DC3 must be linked to antigen, as a control T cells are expanded using free FR74 mixed with free DC3. To test the role of furin with furin-insensitive linkers, RARR (SEQ ID NO:4) is replaced with VRVV (SEQ ID NO:41) with the polypeptides FR74.1, FR74.3, and FR74.8 as shown in FIG. 17. In parallel with these cultures, cultures are included in which inhibitors are included. […] On day 5, CPG is added to the cultures at 1 μg/mL, and the cells are ready for T cell induction on day 6. […]

With “FR74.4: dual conjugated polypeptide: FR74 nested between Ii-key and DC3 (Ac-LRMK[Ava]KDISYLYRFNWNHCGRARRFYPSYHSTPQRP)” the “splenocyte proliferation in response to native FR74 antigen after DC immunization” value (splenocytes) was “significantly elevated proliferative response” and the “lowest peptide concentration at which generated T cells proliferate” value (FR74-specific T cells) was 10^−9 g/mL.

— patent US8858952B2, “Methods and materials for generating T cells” (Mayo Foundation for Medical Education and Research, priority 2009, dated 2014)
